Read-outs that look alike come from different tables or passages of the source.
Key:
[1] = system: P. falciparum stage V gametocytes; assay: microbe, parasite or virus in culture; set-up: BacTiter-Glo ATP luminescence viability of purified stage V gametocytes in 384-well plates, per cent inhibition versus DMSO
[2] = system: P. falciparum asexual stages; conditions: asexual stages; TCAMS data; read-out: IC50 asexual; cited from earlier work
[3] = system: HepG2 cells; assay: Cytotoxicity in HepG2 cells (intracellular ATP, ATPlite, 48 h); format: cell-based, human; conditions: HepG2 cells; IC50 per ratio column head; unit inferred
[4] = system: P. falciparum stage V gametocytes; assay: Gametocytocidal ATP bioluminescence assay (single point 5 μM and 1 μM, dose-response); format: cell-based, Plasmodium falciparum; conditions: for Ratio IC50 HepG2/IC50 P. falciparum: IC50 HepG2 divided by IC50 P. falciparum gametocytes
Experimental: Purified stage IV-V gametocytes were obtained as previously described [10]. Single point ATP bioluminescence assay and dose–response of positive hits was determined in accordance with the previously published protocol [10].

[5] = Plasmodium falciparum, 48 h, read-out: % Inhibition
[6] = Plasmodium falciparum, 48 h; read-out: % Inhibition
[7] = P. falciparum gametocytes, average, read-out: IC50 Pf Gametocytes average, IC50 (µM) average
[8] = sexual stages (gametocytes), dose-response, read-out: IC50 sexual

| SMILES | inhibition at 5 µM [1, 5] [%] | IC50 [2] [nM] | IC50 [3] [nM] | Ratio IC50 HepG2/IC50 P. falciparum [4] | IC50 [4, 7] [µM] | also measured |
| --- | --- | --- | --- | --- | --- | --- |
| Fc1ccc2nccc(NN=Cc3ccccc3Cl)c2c1 [TCMDC-142122] | -2.19 |  |  |  |  |  |
| CC1=C(C(=O)OCCOCc2ccccc2)C(c2ccccc2C(F)(F)F)C(C(=O)OCCOCc2ccccc2)=C(C)N1 [TCMDC-142290] | 61.1 |  |  |  |  |  |
| COc1cccc2c(NN=Cc3cccc(Cl)c3)ccnc12 [TCMDC-142129] | 91.8 |  |  |  |  |  |
| COc1ccc(C=NNc2c3ccccc3nc3ccccc23)c2ccccc12 [TCMDC-142231] | -139 |  |  |  |  |  |
| COc1ccc(C=NNc2cc(C)nc3c(C)cccc23)c2ccccc12 [TCMDC-142216] | -26.1 |  |  |  |  |  |
| COc1ccc2c(N/N=C/c3ccccc3[N+](=O)[O-])ccnc2c1 [TCMDC-142140] | 101 |  |  |  |  |  |
| COc1cccc2c(Nc3ccccc3C)nc(Nc3ccccc3C)nc12 [TCMDC-142321] | 28.2 |  |  |  |  |  |
| COc1cccc2c(Oc3ccccc3C)ccnc12 [TCMDC-142320] | -32.5 |  |  |  |  |  |
| Cc1cc(NN=Cc2ccccc2)c2cc(F)ccc2n1 [TCMDC-142175] | -16.9 |  |  |  |  |  |
| COc1ccc2c(NN=Cc3ccccc3Cl)ccnc2c1 [TCMDC-142127] | -22.2 |  |  |  |  |  |
| CCCCCC(C)C(C)c1cc(O)c2c(c1)OC(C)(C)c1cnccc1-2 (stereo not drawn) [TCMDC-142188] |  |  |  |  |  | inhibition at 5 µM [1, 6]: -17.5% |
| CNCCc1c(O)ccc2ccccc12 [TCMDC-142244] |  |  |  |  |  | inhibition at 5 µM [1, 6]: -11.4% |
| Cc1cc(N/N=C/c2ccccc2[N+](=O)[O-])c2cc(F)ccc2n1 [TCMDC-142167] | -36.5 |  |  |  |  |  |
| COc1ccc2c(N/N=C/c3cccc([N+](=O)[O-])c3)ccnc2c1 [TCMDC-142138] | 79.5 |  |  |  |  |  |
| COc1ccc2c(NN=Cc3ccccc3)cc(C)nc2c1 [TCMDC-142119] | 7.88 |  |  |  |  |  |
| CN(C(=O)c1ccc(Br)cc1)c1ccccc1[N+](=O)[O-] [TCMDC-142245] | -8 |  |  |  |  |  |
| CCCCCCC(C)(C)c1cc(O)c2c3c(c(=O)oc2c1)CCN(Cc1ccccc1)C3 [TCMDC-142252] |  |  |  |  |  | inhibition at 5 µM [1, 6]: -7.75% |
| CCCC(=O)c1cnc2c(Oc3cc(Cl)ncn3)cccc2c1Nc1ccccc1C [TCMDC-142329] | -26 |  |  |  |  |  |
| COc1cccc2c(NN=Cc3cccc(Cl)c3)cc(C)nc12 [TCMDC-142117] | 27.1 |  |  |  |  |  |
| Cc1ccc2c(NN=Cc3ccc(Cl)cc3)cc(C)nc2c1 [TCMDC-142113] | 40.7 |  |  |  |  |  |
| CCOc1ccc2c(NN=Cc3ccc(F)cc3)cc(C)nc2c1 [TCMDC-142201] | 105 |  |  |  |  |  |
| c1ccc(COc2ccnc(NCCCOc3cccc(CN4CCCCC4)c3)c2)cc1 [TCMDC-142314] | 40 |  |  |  |  |  |

| SMILES | inhibition at 5 µM [1, 5] [%] | IC50 [2] [nM] | IC50 [3] [nM] | Ratio IC50 HepG2/IC50 P. falciparum [4] | IC50 [4, 7] [µM] | also measured |
| --- | --- | --- | --- | --- | --- | --- |
| CCCCCCCCNc1c2ccc(Cl)cc2nc2ccc(OC)cc12 [TCMDC-142191] | 0.773 |  |  |  |  |  |
| CCN(CC)CC(O)c1cc(-c2ccc(OC)cc2)nc2cc(Cl)ccc12 (stereo not drawn) [TCMDC-142222] | -13 |  |  |  |  |  |
| Cc1cc(NN=Cc2cccc(F)c2)c2cc(F)ccc2n1 [TCMDC-142173] | -60.6 |  |  |  |  |  |
| Fc1ccc(C=NNc2ccnc3ccc(C(F)(F)F)cc23)cc1 [TCMDC-142152] | -15.6 |  |  |  |  |  |
| Cc1[nH]cnc1CSCCN/C(=N\C#N)NCCCCCCCCN/C(=N/C#N)NCCSCc1nc[nH]c1C [TCMDC-142302] | 48.1 |  |  |  |  |  |
| CC1=CC(=O)[C@@H](O)[C@]2(C)[C@H]3[C@@]4(O)OC[C@@]35[C@@H](C[C@@H]12)OC(=O)C[C@H]5[C@@H](C)[C@H]4O [TCMDC-142261] |  |  |  |  |  | inhibition at 5 µM [1, 6]: 50.1% |
| COc1cccc2c(N/N=C/c3ccccc3[N+](=O)[O-])ccnc12 [TCMDC-142141] | 90.8 |  |  |  |  |  |
| COc1ccc2nccc(NN=Cc3ccccc3[N+](=O)[O-])c2c1 [TCMDC-142136] | 27.9 |  |  |  |  |  |
| Cc1cc(NN=Cc2ccccc2Cl)c2cc(F)ccc2n1 [TCMDC-142165] | -39.2 |  |  |  |  |  |
| CCCCCNc1nc(Nc2ccccc2C)nc2ccccc12 [TCMDC-142328] | 26.7 |  |  |  |  |  |
| COc1ccc2nccc(NN=Cc3cccc(F)c3)c2c1 [TCMDC-142131] | 82.2 |  |  |  |  |  |
| Cc1cc(NN=Cc2ccc(F)cc2)c2cc(C(F)(F)F)ccc2n1 [TCMDC-142158] | -75.7 |  |  |  |  |  |
| COc1ccc(C=NNc2cc(C)nc3ccccc23)cc1OC [TCMDC-142184] | -5.19 |  |  |  |  |  |
| COc1ccc2c(NN=Cc3ccccc3F)ccnc2c1 [TCMDC-142133] | 84.6 |  |  |  |  |  |
| COc1ccc(C=NNc2ccnc3cc(F)c(C)cc23)c2ccccc12 [TCMDC-142235] | -8.9 |  |  |  |  |  |
| Cc1cc(F)ccc1Nc1nc(N(C)c2ccccc2)c2cccc(O)c2n1 [TCMDC-142331] | -52.7 |  |  |  |  |  |
| COc1ccc2c(NN=Cc3ccccc3F)cc(C)nc2c1 [TCMDC-142118] | -19.6 |  |  |  |  |  |
| COc1cc(C=NNc2cc(C)nc3c(OC)cccc23)cc(OC)c1OC [TCMDC-142200] | 84.3 |  |  |  |  |  |
| CCN(CC)Cc1cc(NC(=O)c2ccccc2O)ccc1Oc1ccc(Cl)cc1 [TCMDC-142283] | -6.19 |  |  |  |  |  |
| COc1ccc2nccc(NN=Cc3ccccc3Cl)c2c1 [TCMDC-142126] | 20.5 |  |  |  |  |  |
| c1cc(CN2CCCCC2)cc(OCCCNc2ccnc3ccccc23)c1 [TCMDC-142315] | 42 |  |  |  |  |  |
| Fc1ccc(N(c2nc(-c3cc(F)cc(C(F)(F)F)c3)cs2)C2CCNCC2)cc1 [TCMDC-136656] |  | 956 | 6600 | 2 | 3.28 | IC50 [4, 8]: 3.27 µM |

| SMILES | inhibition at 5 µM [1, 5] [%] | IC50 [2] [nM] | IC50 [3] [nM] | Ratio IC50 HepG2/IC50 P. falciparum [4] | IC50 [4, 7] [µM] | also measured |
| --- | --- | --- | --- | --- | --- | --- |
| CC(Cc1ccc(CNC(=O)NCc2ccc(CC(C)NCCc3cccc(Cl)c3)cc2)cc1)NCCc1cccc(Cl)c1 (stereo not drawn) [TCMDC-139648] |  | 685 | 4180 | 7 | 0.61 |  |
| COc1ccc(CCNCCCCCCNCCc2ccc(Cl)cc2)c(Cl)c1OC [TCMDC-131272] |  | 825 | 6200 | 24 | 0.26 | IC50 [4, 8]: 0.257 µM |
| CN1CCC(N(Cc2ccc(-c3ccc(Cl)cc3)cc2)C(=O)Cn2c(CCc3cccc(F)c3F)cc(=O)c3ccccc32)CC1 [TCMDC-141357] |  | 865 | 6700 | 2 | 3.43 | IC50 [4, 8]: 3.43 µM |
| CCOc1ccc2ccccc2c1CNCCCCCCNCc1c(OCC)ccc2ccccc12 [TCMDC-137791] |  | 576 | 1750 | 2.5 | 0.7 |  |
| CN1CCCN(Cc2cccc(-c3ccc(NS(=O)(=O)c4cccc5cccnc45)cc3)c2)CC1 [TCMDC-136481] |  | 957 | 6500 | <1 | > 10 |  |
| CC(=O)N(Cc1ccc(CC(C)NCCc2cccc(Cl)c2)cc1)Cc1ccc(CC(C)NCCc2cccc(Cl)c2)cc1 (stereo not drawn) [TCMDC-139678] |  | 783 | 2300 | 1.64 | 1.4 |  |
| CCCCCCCn1c(=N)n(CC(O)c2ccc(Cl)c(Cl)c2)c2ccccc21 (stereo not drawn) [TCMDC-124065] |  | 782 | 6000 | 3 | 2.02 |  |
| CCCCCCOc1ccc2ccccc2c1CNCCCCCCNCc1c(OCCCCCC)ccc2ccccc12 [TCMDC-137963] |  | 1060 | 3300 | 7 | 0.48 |  |
| NCCCOc1cnc(-c2ccccc2)c2nc(-c3nonc3N)n(CCc3ccccc3)c12 [TCMDC-136216] |  | 1270 | 5610 | 4 | 1.4 |  |
| CCn1c(Sc2ccc([N+](=O)[O-])c(C#N)c2)nnc1-c1cccc(Cl)c1 [TCMDC-135234] |  | 873 | > 25000 | >8 | 3.04 |  |
| COc1ccc2cc(CNCCCCCCNCc3ccc4cc(OC)ccc4c3)ccc2c1 [TCMDC-137797] |  | 624 | 3000 | 4.48 | 0.67 |  |
| CCn1c(-c2nonc2N)nc2c(-c3cc4ccccc4s3)ncc(C(=O)N3CCC(N)C3)c21 (stereo not drawn) [TCMDC-135281] |  | 871 | 3500 | 10 | 0.35 |  |
| CC(C)Oc1ccc2ccccc2c1CNCCCCCCNCc1c(OC(C)C)ccc2ccccc12 [TCMDC-137965] |  | 612 | 2380 | 17 | 0.14 |  |
| FC(F)(F)COc1ccc2ccccc2c1CNCCCCCCNCc1c(OCC(F)(F)F)ccc2ccccc12 [TCMDC-137816] |  | 352 | 3040 | 8 | 0.37 |  |
| Nc1c2ccccc2nc2ccc(-c3ccccc3)cc12 [TCMDC-132030] |  | 140 | 3300 | 7 | 0.49 | IC50 [4, 8]: 0.485 µM |
| CCCCc1ccc(CCNCCCCCCNCCc2ccc(O)c(O)c2)cc1 [TCMDC-131281] |  | 1070 | 8190 | 15 | 0.54 | IC50 [4, 8]: 0.545 µM |
| O=S(=O)(NCCN1CCCC1)c1cccc(-c2ccc(CNC3Cc4ccccc4C3)cc2)c1 [TCMDC-132241] |  | 660 | 8000 | 3.72 | 2.15 |  |
| CCCCOc1cc(OC)c2ccccc2c1CCNCCCCNCCc1c(OCCCC)cc(OC)c2ccccc12 [TCMDC-137845] |  | 1050 | 3000 | 6 | 0.5 |  |
| C=CCOc1ccc2ccccc2c1CNCCCCCCNCc1c(OCC=C)ccc2ccccc12 [TCMDC-137340] |  | 859 | < 1560 | <6 | 0.25 |  |
| FC(F)(F)COc1ccc2ccccc2c1CCNCCCCNCCc1c(OCC(F)(F)F)ccc2ccccc12 [TCMDC-137317] |  | 426 | 3300 | 2.41 | 1.37 |  |

Source: article PMC4552634, “A New Set of Chemical Starting Points with Plasmodium falciparum Transmission-Blocking Potential for Antimalarial Drug Discovery” (PLoS ONE, 2015)
